This assay addresses T1, TGFBR1 (ALK5) (Homo sapiens, UniProt P36897).
T1 construct: purchased Thermo Fisher Scientific (Life Technologies) SelectScreen
The assay is described as follows: SelectScreen LanthaScreen. The class given is binding. The settings on record: read-out: % displacement. Put shortly:
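Percent values come from Thermo SelectScreen profiling of NU5455, combining activity and binding assays. CSF1R was run in Z'LYTE format at Km app ATP, and CAMK1 in Adapta format with ATP listed at 10.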

Structures are written as SMILES.

T1 sequence (P36897 34-503): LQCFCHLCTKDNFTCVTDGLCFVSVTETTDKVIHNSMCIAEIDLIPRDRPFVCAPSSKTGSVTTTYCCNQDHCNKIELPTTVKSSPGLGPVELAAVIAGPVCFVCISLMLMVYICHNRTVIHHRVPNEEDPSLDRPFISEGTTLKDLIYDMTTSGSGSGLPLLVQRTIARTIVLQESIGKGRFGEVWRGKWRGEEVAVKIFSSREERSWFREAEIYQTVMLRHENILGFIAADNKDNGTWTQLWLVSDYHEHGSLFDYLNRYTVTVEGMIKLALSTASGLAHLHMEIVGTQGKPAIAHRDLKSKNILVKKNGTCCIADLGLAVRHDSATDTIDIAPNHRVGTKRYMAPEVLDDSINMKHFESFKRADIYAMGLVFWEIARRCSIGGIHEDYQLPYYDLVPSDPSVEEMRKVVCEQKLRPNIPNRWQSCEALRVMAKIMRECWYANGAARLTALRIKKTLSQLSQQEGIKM

Consider `CN(C(=O)CN1CCOCC1)c1ccc2sc3c(-c4cccc5c(=O)cc(N6CC7CCC(C6)O7)oc45)cccc3c2c1` [NU5455], for which the inhibition at 1 µM is -0.4%.

The record behind these values is paper PMC6934184, “Selective DNA-PKcs inhibition extends the therapeutic index of localized radiotherapy and chemotherapy” (The Journal of Clinical Investigation, 2019).
